From ChEMBL document CHEMBL6083247, “Discovery of sulfone containing metallo-β-lactamase inhibitors with reduced bacterial cell efflux and histamine release issues” (Bioorg Med Chem Lett, 2024)

Legend:
[1] = target: Metallo-beta-lactamase type 2 (Bacteria, UniProt C7C422); experiment: Inhibition of Metallo-beta-lactamase NDM-1 (unknown origin)
[2] = Inhibition of Metallo-beta-lactamase IMP-1 (unknown origin); parameters: species or system Bacteria
[3] = Inhibition of Metallo-beta-lactamase VIM-1 (unknown origin); parameters: species or system Bacteria
Escherichia coli = experiment: Antibacterial activity against NDM-1 expressing Escherichia coli CLB30016 assessed as inhibition of bacterial growth in presence of IMI by absorbance based assay; assay type: functional
Serratia marcescens = experiment: Antibacterial activity against IMP-1 expressing Serratia marcescens CL5741 assessed as inhibition of bacterial growth in presence of IMI by absorbance based assay; assay type: functional
Klebsiella pneumoniae = experiment: Antibacterial activity against VIM-1 expressing Klebsiella pneumoniae IHMA599644 assessed as inhibition of bacterial growth in presence of IMI by absorbance based assay; assay type: functional
Pseudomonas aeruginosa [4] = experiment: Antibacterial activity against wildtype isogenic efflux/IMP-1 expressing Pseudomonas aeruginosa MB9798 assessed as inhibition of bacterial growth in presence of IMI by absorbance based assay; assay type: functional
Pseudomonas aeruginosa [5] = experiment: Antibacterial activity against mutant isogenic efflux/IMP-1 expressing Pseudomonas aeruginosa MB9799 assessed as inhibition of bacterial growth in presence of IMI by absorbance based assay; assay type: functional
[6] = Efflux ratio of MITC95 for antibacterial activity against wildtype isogenic efflux/IMP-1 expressing Pseudomonas aeruginosa MB9798 assessed as inhibition of bacterial growth in presence of IMI to MITC95 for antibacterial activity against mutant isogenic efflux/IMP-1 expressing Pseudomonas aeruginosa MB9799 assessed as inhibition of bacterial growth in presence of IMI; assay type: functional
[7] = Volume of distribution at steady state in rat at 1 mg/kg, iv; assay type: ADME, organism-based; details: in vivo, read-out: Vdss
[8] = AUC in rat at 1 mg/kg, iv; assay type: ADME, organism-based; details: in vivo
[9] = Clearance in rat at 1 mg/kg, iv; assay type: ADME, organism-based; details: in vivo
[10] = Cmax in rat at 1 mg/kg, iv; assay type: ADME, organism-based; details: in vivo
[11] = MRT in rat at 1 mg/kg, iv; assay type: ADME, organism-based; details: in vivo
[12] = Unbound fraction in rat plasma at 1 mg/kg, iv; assay type: ADME, organism-based
[13] = Inhibition of Metallo-beta-lactamase VIM-2 (unknown origin); parameters: species or system Bacteria
[14] = Unbound fraction in rat plasma at 4 mg/kg, iv; assay type: ADME, organism-based
[15] = MRT in rat at 4 mg/kg, iv; assay type: ADME, organism-based; details: in vivo
[16] = Cmax in rat at 4 mg/kg, iv; assay type: ADME, organism-based; details: in vivo
[17] = Volume of distribution at steady state in rat at 4 mg/kg, iv; assay type: ADME, organism-based; details: in vivo, read-out: Vdss
[18] = Clearance in rat at 4 mg/kg, iv; assay type: ADME, organism-based; details: in vivo
[19] = AUC in rat at 4 mg/kg, iv; assay type: ADME, organism-based; details: in vivo
[20] = Toxicity in cardiovascular rat model assessed as increase in histamine release in plasma at 4 mg/kg, iv; assay type: organism-based; details: in vivo
[21] = Toxicity in rat mast cells assessed as degranulation by measuring histamine release at >=100 microM; assay type: cell-based; details: mast cell
[22] = Toxicity in rat assessed as adverse effect at 4 mg/kg, iv; assay type: organism-based; details: in vivo

Metallo-beta-lactamase type 2, sequence (C7C422 whole entry): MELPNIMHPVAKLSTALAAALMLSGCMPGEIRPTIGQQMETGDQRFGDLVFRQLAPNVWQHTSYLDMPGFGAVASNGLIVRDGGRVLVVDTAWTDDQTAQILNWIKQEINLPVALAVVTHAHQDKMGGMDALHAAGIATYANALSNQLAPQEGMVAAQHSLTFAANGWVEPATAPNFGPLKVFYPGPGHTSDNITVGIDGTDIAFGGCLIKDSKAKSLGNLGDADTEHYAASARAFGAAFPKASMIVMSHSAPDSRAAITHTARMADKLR

Structure (SMILES) | IC50 [1] [nM] | IC50 [2] [nM] | IC50 [3] [nM] | MITC95 (Escherichia coli) [µM] | MITC95 (Serratia marcescens) [µM] | MITC95 (Klebsiella pneumoniae) [µM] | MITC95 (Pseudomonas aeruginosa [4]) [µM] | MITC95 (Pseudomonas aeruginosa [5]) [µM] | Ratio [6] | IC50 [13] [nM] | also measured
Cc1ccc(-c2ccc(S(=O)(=O)C3CNC3)c(S(N)(=O)=O)c2-c2nn[nH]n2)c2nc(N)[nH]c12 | 0.04 | 0.47 | 0.24 | 1.56 | 0.78 | 1.56 | 0.78 | 0.78 | 1 |  | 
NS(=O)(=O)c1cccc(-c2ccc(C3CCNCC3)cc2)c1-c1nn[nH]n1 |  | 34 | 19 | 3 | 9 | 38 | 200 | 1.56 | 128 |  | 
NS(=O)(=O)c1c(S(=O)(=O)C2CCNCC2)ccc(-c2ccc(C3CCNCC3)cc2)c1-c1nnn[nH]1 |  | 0.52 | 0.31 | 1.56 | 3.13 | 3.13 | 0.78 | 0.78 | 1 | 4.1 | Vd [7]: 0.18 L/kg; AUC [8]: 8.4 µM·h; clearance [9]: 3.8 mL/min/kg; Cmax [10]: 15.8 µM; MRT [11]: 46.8 min; fraction unbound [12]: 0.66
Cc1ccc(-c2cccc(S(N)(=O)=O)c2-c2nnn[nH]2)cc1 | 3.7 | 64 | 57 | 1.5 | 14 | 127 |  |  |  |  | 
NS(=O)(=O)c1c(SC2CCNCC2)ccc(-c2ccc(C3CCNCC3)cc2)c1-c1nnn[nH]1 |  | 35.7 | 48.5 | 1.56 | 3.13 | 6.25 | 25 | 0.78 | 32 |  | 
Nc1nc2c(-c3ccc(S(=O)(=O)C4CCNCC4)c(S(N)(=O)=O)c3-c3nn[nH]n3)cccc2s1 | 0.12 | 0.46 | 0.26 | 3.13 | 3.13 | 6.25 | 1.56 | 1.56 | 1 | 0.4 | 
NS(=O)(=O)c1c(S(=O)(=O)C2CNC2)ccc(-c2ccc(C3CCNCC3)cc2)c1-c1nn[nH]n1 |  | 0.21 | 0.2 | 0.78 | 1.56 | 1.56 | 0.78 | 0.78 | 1 | 2.8 | fraction unbound [14]: 0.55; MRT [15]: 40.2 min; Cmax [16]: 35.7 µM; Vd [17]: 0.34 L/kg; clearance [18]: 8.5 mL/min/kg; AUC [19]: 15.6 µM·h; Activity [20]: Non-toxic; Activity [21]: Toxic; Activity [22]: Non-toxic
